Legend:
sunflower = assay: Sunflower grown in alkaline soil, foliage spray of agent every 2 weeks, plant height and dry weight of shoots; format: in vivo, sunflower (Pachino-gold); details: pH of soil 8.8, foliage spray 5 mL/pot every 2 weeks, sown June 13, measured August 10
Method: Culture soil (sowing mold, product of Takii Seed Co., Ltd.; 440 mg-N/L, 390 mg-P/L, and 410 mg-K/L) and plug soil for turf were mixed at 1:1, and calcium carbonate was added to the soil mixture to a Ca concentration of 5 mass %. An appropriate amount of aqueous sodium carbonate solution was added thereto, followed by sufficiently mixing, to thereby provide alkaline soil (pH: 8.8). Each of the No. 6-pots (surface area: 177 cm^2) was filled with the above-prepared soil, and on the day of June 13, 4 seeds of sunflower (Pachino-gold, product of Takii Seed Co., Ltd.) were sown in the soil, followed by cultivation in a greenhouse. Fourteen days after, two uniform seedlings per pot were selected by cutting. After cutting, an aqueous solution (0.05 mass %) of each agent having a composition shown in Table 7 was sprayed every 2 weeks to the stems and leaves of the plants in each pot (5 mL/pot), and the pot was controlled under ordinary conditions. On the day of August 10, the plant height and the dry weight of shoots of each plant were measured.
The test procedure of Example 19 was repeated, except that application of sulfur to soil treatment and application of other agent ingredients to foliage treatment were simultaneously performed.
The test procedure of Example 19 was repeated, except that the agent was changed.

corn = assay: Corn grown in alkaline soil, foliage spray of agent every 2 weeks, plant height and dry weight of shoots; format: in vivo, corn (species: Amai bantam 90); details: pH of soil 8.7, foliage spray 5 mL/pot every 2 weeks, sown November 15, harvested December 26
Method: Calcium carbonate was added to field soil so as to adjust the Ca content to 5 mass %, and an appropriate amount of aqueous sodium carbonate solution was added thereto, followed by sufficiently mixing, to thereby provide alkaline soil (pH: 8.7). A chemical fertilizer (base fertilizer) was added to the alkaline soil in an amount of 10 kg/10 a (as reduced to N). Each of the pots (1/5000 a) was filled with the above soil, and 4 seeds of corn (species: Amai bantam 90, product of Tohoku Seed Co., Ltd.) were sown in the soil on November 15, followed by cultivation in a greenhouse. Twelve days after, two uniform seedlings per pot were selected by cutting. After cutting, an aqueous solution (0.05 mass %) of each agent having a composition shown in Table 6 was sprayed every 2 weeks to the stems and leaves of the plants in each pot (5 mL/pot), and the pot was controlled under ordinary conditions. On the day of December 26, the soil was washed out with water, whereby the plants were harvested, and the plant height of each plant was measured. Subsequently, the plants were dried at 80° C. for 24 hours by a drier, and the dry weight of shoots of each plant was measured.
The test procedure of Example 17 was repeated, except that application of sulfur to soil treatment and application of other agent ingredients to foliage treatment were simultaneously performed. […]

Komatsuna [1] = assay: Komatsuna grown in alkaline soil, foliage spray of agent every 2 weeks, plant height and dry weight of shoots; format: in vivo, Komatsuna (Calvita); details: pH of soil 8.8, foliage spray 5 mL/pot every 2 weeks, 27 days after sowing, averaged
Method: Calcium carbonate was added to field soil so as to adjust the Ca content to 5 mass %, and an appropriate amount of aqueous sodium carbonate solution was added thereto, followed by sufficiently mixing, to thereby provide alkaline soil (pH: 8.8). A chemical fertilizer (base fertilizer) was added to the alkaline soil in an amount of 10 kg/10 a (as reduced to N). Each of the pots (1/5000 a) was filled with the above soil, and 10 seeds of Komatsuna (Calvita, product of Nohara Seed Co., Ltd.) were sown in the soil, followed by cultivation in a greenhouse. Ten days after, five uniform seedlings per pot were selected by cutting. After cutting, an aqueous solution (0.05 mass %) of each agent having a composition shown in Table 2 was sprayed every 2 weeks to the stems and leaves of the plants in each pot (5 mL/pot), and the pot was controlled under ordinary conditions. Twenty-seven days after sowing, the soil was washed out with water, whereby the plants were harvested. The plant height of each plant was measured. Subsequently, the plants were dried at 80° C. for 24 hours by a drier, and the dry weight of shoots of each plant was measured.
The test procedure of Example 7 was repeated, except that the amounts of ingredients were changed. […]
The test procedure of Example 7 was repeated, except that the agent was changed. […]

cotton = assay: Cotton grown in alkaline soil, foliage spray of agent every 2 weeks, plant height and dry weight of shoots; format: in vivo, cotton (species: Dwarf cotton); details: pH of soil 8.8, foliage spray 5 mL/pot every 2 weeks, sown Sep. 22, harvested November 7
Method: Calcium carbonate was added to field soil so as to adjust the Ca content to 5 mass %, and an appropriate amount of aqueous sodium carbonate solution was added thereto, followed by sufficiently mixing, to thereby provide alkaline soil (pH: 8.8). A chemical fertilizer (base fertilizer) was added to the alkaline soil in an amount of 10 kg/10 a (as reduced to N). Each of the pots (1/5000 a) was filled with the above soil, and 6 seeds of cotton (species: Dwarf cotton, product of Sakata Seed Co.) were sown in the soil on Sep. 22, followed by cultivation in a greenhouse. Ten days after, three uniform seedlings per pot were selected by cutting. After cutting, an aqueous solution (0.05 mass %) of each agent having a composition shown in Table 4 was sprayed every 2 weeks to the stems and leaves of the plants in each pot (5 mL/pot), and the pot was controlled under ordinary conditions. On the day of November 7, the soil was washed out with water, whereby the plants were harvested, and the plant height of each plant was measured. Subsequently, the plants were dried at 80° C. for 24 hours by a drier, and the dry weight of shoots of each plant was measured.
The test procedure of Example 13 was repeated, except that sulfur was further applied to soil treatment one day after foliage treatment with other agent ingredients.
The test procedure of Example 13 was repeated, except that the agent was changed. […]

[2] = test system: plants grown in alkaline soil; details: spraying, Non-Patent Document 1; cited from earlier work
Komatsuna [3] = assay: Komatsuna pot test: foliage application of agent, then sub-irrigation with pH 9.0 sodium carbonate/sodium hydrogencarbonate buffer, fresh weight of shoots; format: in vivo, Komatsuna (species: Calvita); details: 0.05 wt. % aqueous solution of agent on stems and leaves, 5 mL/pot, pH 9.0 buffer sub-irrigation three days after treatment, measured one week after irrigation
Method: Each of the pots (1/5000 a) was filled with andosols soil, and Komatsuna (species: Calvita, product of Nohara Seed Co., Ltd.) was sown in the soil. At the 3 leaf stage, five uniform seedlings per pot were selected by cutting. An aqueous solution (0.05 wt. %) of each agent having a composition shown in Table 1 was applied to the stems and leaves of the plants in each pot (5 mL/pot). Sulfur powder (“sulfur, powder,” product of Wako Pure Chemical Industries, Ltd.) was separately used in an amount given in Table 1 for soil treatment. The same sulfur powder was employed in the following Examples. Three days after the treatment, sub-irrigation was performed with a 0.5-mol/L aqueous sodium carbonate/sodium hydrogencarbonate buffer (pH: 9.0). One week after irrigation, the fresh weight of shoots of the plants was measured so as to check the growth conditions.
In Comparative Example 1, water was employed instead of an aqueous solution of each agent.

Komatsuna [4] = assay: Komatsuna grown in alkaline soil, agent applied to the soil surface every 2 weeks (soil treatment), plant height and dry weight of shoots; format: in vivo, Komatsuna (Calvita); details: pH of soil 8.8, applied to surface of the soil 10 mL/pot every 2 weeks, 27 days after sowing
Method: Calcium carbonate was added to field soil so as to adjust the Ca content to 5 mass %, and an appropriate amount of aqueous sodium carbonate solution was added thereto, followed by sufficiently mixing, to thereby provide alkaline soil (pH: 8.8). A chemical fertilizer (base fertilizer) was added to the alkaline soil in an amount of 10 kg/10 a (as reduced to N) Each of the pots (1/5000 a) was filled with the above soil, and 10 seeds of Komatsuna (Calvita, product of Nohara Seed Co., Ltd.) were sown in the soil, followed by cultivation in a greenhouse. Ten days after, five uniform seedlings per pot were selected by cutting. After cutting, an aqueous solution (0.05 mass %) of each agent having a composition shown in Table 9 was applied every 2 weeks to the surface of the soil in each pot (10 mL/pot), and the pot was controlled under ordinary conditions. Twenty-seven days after sowing, the soil was washed out with water, whereby the plants were harvested, and the plant height of each plant was measured. Subsequently, the plants were dried at 80° C. for 24 hours by a drier, and the dry weight of shoots of each plant was measured.
The test procedure of Example 23 was repeated, except that application of sulfur to soil treatment and application of other agent ingredients to foliage treatment were simultaneously performed.
The test procedure of Example 23 was repeated, except that the agent was changed.

tomato = assay: Tomato seedlings transplanted to alkaline soil, foliage spray of agent every 2 weeks, dry weight of shoots; format: in vivo, tomato (Kyoryoku Beijyu); details: pH of soil 8.8, foliage spray 5 mL/pot every 2 weeks, transplanted June 6, harvested July 6
Method: Calcium carbonate was added to field soil so as to adjust the Ca content to 5 mass %, and an appropriate amount of aqueous sodium carbonate solution was added thereto, followed by sufficiently mixing, to thereby provide alkaline soil (pH: 8.8). A chemical fertilizer (base fertilizer) was added to the alkaline soil in an amount of 10 kg/10 a (as reduced to N). Each of the pots (1/5000 a) was filled with the above soil, and on the day of June 6, tomato seedlings (Kyoryoku Beijyu, product of Nohara Seed Co., Ltd.) were transplanted to the soil, followed by cultivation in a greenhouse. After transplanting, an aqueous solution (0.05 mass %) of each agent having a composition shown in Table 8 was sprayed every 2 weeks to the stems and leaves of the plants in each pot (5 mL/pot), and the pot was controlled under ordinary conditions. On the day of July 6, the soil was washed out with water, whereby the plants were harvested. Subsequently, the plants were dried at 80° C. for 24 hours by a drier, and the dry weight of shoots of each plant was measured.
The test procedure of Example 21 was repeated, except that application of sulfur to soil treatment and application of other agent ingredients to foliage treatment were simultaneously performed.
The test procedure of Example 21 was repeated, except that the agent was changed.

## Cl.NCC(=O)CCC(=O)O [compound 17, 5-Aminolevulinic acid hydrochloride]
sunflower
  Dry weight of shoots: 6.8 g
  Plant height (cm): 36 cm

## Cl.NCC(=O)CCC(=O)O [compound 14, 5-Aminolevulinic acid hydrochloride]
corn
  Dry weight of shoots: 0.30 g
  Plant height (cm): 23.2 cm

## Cl.NCC(=O)CCC(=O)O [compound 5, 5-Aminolevulinic acid hydrochloride]
Komatsuna [1]
  Dry weight of shoots: 2.2 g
  Plant height (cm): 11.3 cm

## Cl.NCC(=O)CCC(=O)O [compound 10, 5-Aminolevulinic acid hydrochloride]
cotton
  Dry weight of shoots: 0.9 g
  Plant height (cm): 13.1 cm

## NCC(=O)CCC(=O)O [5-aminolevulinic acid]
[2]
  Foliage yield of plants: prevent decrease in foliage yield

## Cl.NCC(=O)CCC(=O)O [compound 2, 5-Aminolevulinic acid hydrochloride]
Komatsuna [3]
  Fresh weight of shoots (%)(5 plants in total, relative to treatment period): 55%

## Cl.NCC(=O)CCC(=O)O [compound 23, 5-Aminolevulinic acid hydrochloride]
Komatsuna [4]
  Dry weight of shoots: 2.1 g
  Plant height (cm): 10.3 cm

## Cl.NCC(=O)CCC(=O)O [compound 20, 5-Aminolevulinic acid hydrochloride]
tomato
  Dry weight of shoots: 4.5 g

## O=C([O-])CN(CCN(CC(=O)[O-])CC(=O)[O-])CCN(CC(=O)[O-])CC(=O)[O-].[Fe+3].[NH4+].[NH4+] [compound 24, Ammonium diethylenetriaminepentaacetatoferrate]
Komatsuna [4]
  Dry weight of shoots: 1.9 g
  Plant height (cm): 10.1 cm

## O=C([O-])CN(CCN(CC(=O)[O-])CC(=O)[O-])CCN(CC(=O)[O-])CC(=O)[O-].[Fe+3].[NH4+].[NH4+] [compound 6, Ammonium diethylenetriaminepentaacetatoferrate]
Komatsuna [1]
  Dry weight of shoots: 2.0 g
  Plant height (cm): 9.8 cm

Source: patent US20100035754A1, “AGENT FOR IMPROVING ALKALI RESISTANCE OF PLANT AND METHOD FOR IMPROVING ALKALI RESISTANCE OF PLANT” (COSMO OIL CO., LTD, priority 2007, published 2010)
